Measurements: PMC6044503 (ACS Omega, 2017)
Where a SMILES comes first, the peptide text is derived from it. [ ]: non-standard residue; d: D form. The star is where a group is joined. Phe(4-F) = N[C@@H](Cc1ccc(F)cc1)C(=O)O; 2Nal = N[C@@H](Cc1ccc2ccccc2c1)C(=O)O; Cha = N[C@@H](CC1CCCCC1)C(=O)O; Aib = CC(C)(N)C(=O)O; Bz = O=C(c1ccccc1)*

How the values were obtained:
human Y2R [1] = molecular target: T1, human Y2R (Homo sapiens, UniProt P49146); assay: biochemical; type: binding
T1 sequence (P49146 1-381): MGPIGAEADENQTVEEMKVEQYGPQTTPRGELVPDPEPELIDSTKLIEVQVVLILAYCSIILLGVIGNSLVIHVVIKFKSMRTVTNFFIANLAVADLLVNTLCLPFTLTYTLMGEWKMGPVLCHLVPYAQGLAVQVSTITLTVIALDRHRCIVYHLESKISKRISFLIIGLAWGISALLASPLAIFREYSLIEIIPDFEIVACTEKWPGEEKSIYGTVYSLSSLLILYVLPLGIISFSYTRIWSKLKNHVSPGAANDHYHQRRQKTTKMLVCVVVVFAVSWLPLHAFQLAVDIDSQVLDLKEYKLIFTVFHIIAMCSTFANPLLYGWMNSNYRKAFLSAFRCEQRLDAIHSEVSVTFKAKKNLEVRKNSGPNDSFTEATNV

human Y2R [2] = molecular target: T1, human Y2R; assay: biochemical; type: biochemical
male C57BL/6J mice = assay: Food intake assay, bolus ip administration in lean mice; type: in vivo, mouse; details: 3 h after administration, vs saline, mean ± SD
[3] = Stability in 20% mouse serum/PBS; type: in vitro ADME; details: for remaining at 0.5 h: mouse, 20% mouse serum in PBS
[4] = Pharmacokinetics of PYY analogues in mice; type: in vivo; details: C57BL/6J, mouse, plasma, 1 mg/kg

Row | Compound | IC50 (human Y2R [1]) | EC50 (human Y2R [2]) | % food intake inhibition (male C57BL/6J mice; bolus ip 1000 nmol/kg) | remaining at 0.5 h [3] | metabolites in mouse serum ([3]; within 30 min in 20% mouse serum/PBS) | % food intake inhibition (male C57BL/6J mice; bolus ip 2000 nmol/kg) | Cmax ([4]; ip) | MRT ([4]; ip) | Tmax ([4]; ip) | bioavailability ([4]; ip) | MRT ([4]; iv) | Vd ([4]; iv) | clearance ([4]; iv) | % food intake inhibition (male C57BL/6J mice; bolus ip 250 nmol/kg) | % food intake inhibition (male C57BL/6J mice; bolus ip 500 nmol/kg)
1 | CC[C@H](C)[C@H](NC(=O)[C@H](CC1CCCCC1)NC(=O)[C@H](Cc1c[nH]cn1)NC(=O)[C@H](CCCNC(=N)N)NC(=O)c1ccccc1)C(=O)N[C@@H](CC(N)=O)C(=O)N[C@@H](Cc1c[nH]c2ccccc12)C(=O)N[C@@H](CCCCN)C(=O)N[C@H](C(=O)N[C@@H](CCCNC(=N)N)C(=O)N[C@@H](CCC(N)=O)C(=O)N[C@@H](CCCNC(=N)N)C(=O)N[C@@H](CC1CCCCC1)C(N)=O)[C@@H](C)O [Compound 12] (Bz-RH[Cha]INWKTRQR[Cha]-NH2) | 2.4 nM | 0.84 nM | 4 ± 13% | 51% |  |  |  |  |  |  |  |  |  |  | 
2 | CC[C@H](C)[C@H](NC(=O)[C@H](CC1CCCCC1)NC(=O)[C@H](Cc1c[nH]cn1)NC(=O)[C@H](CCCNC(=N)N)NC(=O)c1ccccc1)C(=O)N[C@@H](CC(N)=O)C(=O)N[C@@H](CC(C)C)C(=O)N[C@H](C(=O)N[C@H](C(=O)N[C@@H](CCCNC(=N)N)C(=O)N[C@@H](CCC(N)=O)C(=O)N[C@@H](CCCNC(=N)N)C(=O)N[C@@H](CC1CCCCC1)C(N)=O)[C@@H](C)O)[C@@H](C)CC [Compound 4] (Bz-RH[Cha]INLITRQR[Cha]-NH2) | 7.2 nM | 3.6 nM | 34 ± 6% | 102% | did not yield any apparent metabolites |  |  |  |  |  |  |  |  |  | 
3 | CC[C@H](C)[C@H](NC(=O)[C@H](Cc1ccc(O)cc1)NC(=O)[C@H](C)NC(=O)[C@H](CCCNC(=N)N)NC(=O)c1ccccc1)C(=O)N[C@@H](CC(N)=O)C(=O)N[C@@H](CC(C)C)C(=O)N[C@H](C(=O)N[C@H](C(=O)N[C@@H](CCCNC(=N)N)C(=O)N[C@@H](CCC(N)=O)C(=O)N[C@@H](CCCNC(=N)N)C(=O)N[C@@H](CC1CCCCC1)C(N)=O)[C@@H](C)O)[C@@H](C)CC [Compound 2] (Bz-RAYINLITRQR[Cha]-NH2) | 3.2 nM | 1.1 nM |  | 53% |  | 21 ± 5% |  |  |  |  |  |  |  |  | 
4 | CC(C)C[C@H](NC(=O)[C@H](CC(N)=O)NC(=O)[C@H](CC1CCCCC1)NC(=O)[C@H](CC1CCCCC1)NC(=O)[C@H](Cc1cnc[nH]1)NC(=O)[C@H](CCCNC(=N)N)NC(=O)c1ccccc1)C(=O)NC(C)(C)C(=O)N[C@H](C(=O)N[C@@H](CCCNC(=N)N)C(=O)N[C@@H](CCC(N)=O)C(=O)N[C@@H](CCCNC(=N)N)C(=O)N[C@@H](CC1CCCCC1)C(N)=O)[C@@H](C)O [Compound 21, benzoyl-[Cha^27,28,36,Aib^31]PYY(25–36)] (Bz-RH[Cha][Cha]NL[Aib]TRQR[Cha]-NH2) |  |  |  |  |  |  | 406 nM | 75 min | 15 min | 6.8% | 27 min | 0.073 L/kg | 2.7 mL/min/kg |  | 
5 | CC[C@H](C)[C@H](NC(=O)[C@H](CC1CCCCC1)NC(=O)[C@H](Cc1c[nH]cn1)NC(=O)[C@H](CCCNC(=N)N)NC(=O)c1ccccc1)C(=O)N[C@@H](CC(N)=O)C(=O)N[C@@H](Cc1c[nH]c2ccccc12)C(=O)N[C@H](C(=O)N[C@H](C(=O)N[C@@H](CCCNC(=N)N)C(=O)N[C@@H](CCC(N)=O)C(=O)N[C@@H](CCCNC(=N)N)C(=O)N[C@@H](CC1CCCCC1)C(N)=O)[C@@H](C)O)[C@@H](C)CC [Compound 5] (Bz-RH[Cha]INWITRQR[Cha]-NH2) | 9.8 nM | 2.3 nM | 40 ± 2% | 93% |  | 65 ± 5% |  |  |  |  |  |  |  | 10 ± 4% | 8 ± 7%
6 | CC[C@H](C)[C@H](NC(=O)[C@H](CC1CCCCC1)NC(=O)[C@H](Cc1c[nH]cn1)NC(=O)[C@H](CCCNC(=N)N)NC(=O)c1ccccc1)C(=O)N[C@@H](CC(N)=O)C(=O)N[C@@H](Cc1ccc(F)cc1)C(=O)N[C@H](C(=O)N[C@H](C(=O)N[C@@H](CCCNC(=N)N)C(=O)N[C@@H](CCC(N)=O)C(=O)N[C@@H](CCCNC(=N)N)C(=O)N[C@@H](CC1CCCCC1)C(N)=O)[C@@H](C)O)[C@@H](C)CC [Compound 6] (Bz-RH[Cha]IN[Phe(4-F)]ITRQR[Cha]-NH2) | 11 nM | 2.9 nM | 40 ± 5% | 96% |  |  |  |  |  |  |  |  |  |  | 18 ± 5%
7 | CC[C@H](C)[C@H](NC(=O)[C@H](Cc1ccc2ccccc2c1)NC(=O)[C@H](Cc1c[nH]cn1)NC(=O)[C@H](CCCNC(=N)N)NC(=O)c1ccccc1)C(=O)N[C@@H](CC(N)=O)C(=O)N[C@@H](Cc1c[nH]c2ccccc12)C(=O)N[C@H](C(=O)N[C@H](C(=O)N[C@@H](CCCNC(=N)N)C(=O)N[C@@H](CCC(N)=O)C(=O)N[C@@H](CCCNC(=N)N)C(=O)N[C@@H](CC1CCCCC1)C(N)=O)[C@@H](C)O)[C@@H](C)CC [Compound 15] (Bz-RH[2Nal]INWITRQR[Cha]-NH2) | 19 nM | 7.3 nM |  | 100% |  |  |  |  |  |  |  |  |  |  | 19 ± 7%
8 | CC[C@H](C)[C@H](NC(=O)[C@H](Cc1ccc(O)cc1)NC(=O)[C@H](C)NC(=O)[C@H](CCCNC(=N)N)NC(=O)c1ccccc1)C(=O)N[C@@H](CC(N)=O)C(=O)N[C@@H](CC(C)C)C(=O)N[C@H](C(=O)N[C@H](C(=O)N[C@@H](CCCNC(=N)N)C(=O)N[C@@H](CCC(N)=O)C(=O)N[C@@H](CCCNC(=N)N)C(=O)N[C@@H](Cc1ccc(O)cc1)C(N)=O)[C@@H](C)O)[C@@H](C)CC [Compound 1, benzoyl-[Ala^26,Ile^28,31]PYY(25–36)] (Bz-RAYINLITRQRY-NH2) | 16 nM | 1.7 nM |  | 5% |  | 25 ± 7% |  |  |  |  |  |  |  |  | 
9 | CC[C@H](C)[C@H](NC(=O)[C@H](CC1CCCCC1)NC(=O)[C@H](Cc1c[nH]cn1)NC(=O)[C@H](CCCNC(=N)N)NC(=O)c1ccccc1)C(=O)N[C@@H](CC(N)=O)C(=O)N[C@@H](CC(C)C)C(=O)N[C@@H](CC1CCCCC1)C(=O)N[C@H](C(=O)N[C@@H](CCCNC(=N)N)C(=O)N[C@@H](CCC(N)=O)C(=O)N[C@@H](CCCNC(=N)N)C(=O)N[C@@H](CC1CCCCC1)C(N)=O)[C@@H](C)O [Compound 8] (Bz-RH[Cha]INL[Cha]TRQR[Cha]-NH2) | 25 nM | 7.3 nM | 46 ± 8% | 114% |  |  |  |  |  |  |  |  |  |  | 17 ± 8%
10 | CC[C@H](C)[C@H](NC(=O)[C@H](CC1CCCCC1)NC(=O)[C@H](Cc1c[nH]cn1)NC(=O)[C@H](CCCNC(=N)N)NC(=O)c1ccccc1)C(=O)N[C@@H](CC(N)=O)C(=O)N[C@@H](CC(C)C)C(=O)NC(C)(C)C(=O)N[C@H](C(=O)N[C@@H](CCCNC(=N)N)C(=O)N[C@@H](CCC(N)=O)C(=O)N[C@@H](CCCNC(=N)N)C(=O)N[C@@H](CC1CCCCC1)C(N)=O)[C@@H](C)O [Compound 10] (Bz-RH[Cha]INL[Aib]TRQR[Cha]-NH2) | 4.8 nM | 1.1 nM | 39 ± 3% | 94% |  | 60 ± 7% |  |  |  |  |  |  |  | 3 ± 4% | 8 ± 7%
11 | CC[C@H](C)[C@H](NC(=O)[C@H](CC1CCCCC1)NC(=O)[C@H](Cc1c[nH]cn1)NC(=O)[C@H](CCCNC(=N)N)NC(=O)c1ccccc1)C(=O)N[C@@H](CC(N)=O)C(=O)N[C@@H](Cc1c[nH]c2ccccc12)C(=O)NC(C)(C)C(=O)N[C@H](C(=O)N[C@@H](CCCNC(=N)N)C(=O)N[C@@H](CCC(N)=O)C(=O)N[C@@H](CCCNC(=N)N)C(=O)N[C@@H](CC1CCCCC1)C(N)=O)[C@@H](C)O [Compound 11] (Bz-RH[Cha]INW[Aib]TRQR[Cha]-NH2) | 11 nM | 2.4 nM | 36 ± 8% | 95% |  | 52 ± 5% |  |  |  |  |  |  |  |  | 12 ± 3%
